Assay in all cases: Affinity chromatography with NFX-beads and mass spectrometry
What all share (assay type): binding
Details in all cases: spectral counts, NFX coupled beads vs beads alone, human fibroblast extracts

Experiment [1] deals with T1, Calcium/calmodulin-dependent protein kinase type II subunit delta (CAMK2D) (Homo sapiens, UniProt Q13557).
T1 construct: Protein extracts from human fibroblasts were incubated with magnetic beads; endogenous in cells; host or cells: human fibroblast lysate
How it is done:
(§1) Fibroblasts were trypsinized and washed with PBS 1× then incubated in lysis buffer on ice during 20 minutes (Lysis buffer: Tris-HCl pH 7.5 50 mM, EDTA 2 mM, Triton X-100 0.1% supplemented with anti-protease and anti-phosphatase (Complete-Mini™—Roche). After centrifugation 15 minutes, 13 000 rpm at 4° C., supernatant was conserved and the protein concentration was determined using the Pierce BCA assay kit (Thermo Fisher Scientific).
(§2) 10 μL of magnetic beads and NFX-beads were washed three times in Bead buffer before to be resuspended 100 μL of Bead buffer (Bead buffer: Tris-HCl pH 7.5 50 mM, NaCl 150 mM, Triton X-100 0.1%, supplemented with anti-protease and anti-phosphatase (Complete-Mini™—Roche)) thanks to a magnetic rack (DynaMag-2 Ref 12321D Life Technologies). 800 μg of proteins were mixed with 100 μL of diluted beads and the final volume was set to 800 μL with Bead buffer. The proteins and the beads were incubated 30 minutes with rotation in a cold room. Using a magnetic rack, the beads were separated from the protein extract and washed three time with Bead buffer before to be resuspended in 75 μL of Laemmli2X. Laemmli with beads was put 5 minutes at 95° C. to eluate the proteins and the beads were discarded using a magnetic rack. 35 μL of the eluted proteins were subjected to SDS-PAGE and silver coloration (ProteoSilver™ Silver Stain Kit—Sigma Aldrich). Bands of interest were extracted from the gel and subjected to mass spectrometry.
(§3) Mass spectrometric identification and quantification of the pulled down proteins were performed as previously described (Shrivastava et al., EMBO, 2019, 38:e99871). The raw data were cleaned using the following pathway. First, only the proteins found to interact with the NFX coupled beads in the three replicates were kept for further analysis. […] The final proteins were then classified based on the fold chance and the p-value.
(§4) Identification of the NFX intracellular targets is a crucial step in understanding its mechanisms of action and to be able to improve its efficiency on a rational basis. To purify NFX-binding proteins, affinity chromatography purification was performed using magnetic beads. Protein extracts from human fibroblasts were incubated with magnetic beads alone or to which NFX has been covalently coupled (Scheme 1). Eluted fractions were subjected to SDS-PAGE electrophoresis and silver staining (FIG. 9A). The pattern was clearly different between eluted proteins from NFX-beads compared to those eluted form beads alone with 13 bands either appeared or were of a higher intensity with the NFX-beads (FIG. 9B). Excised bands were subjected to proteolytic digestion and mass spectrometry.

The target in experiment [2] is T2, E3 ubiquitin-protein ligase DTX3L (Homo sapiens, UniProt Q8TDB6).
T2 construct: Protein extracts from human fibroblasts were incubated with magnetic beads; endogenous in cells; host or cells: human fibroblast lysate
How it is done: as §1, §2, §3, §4

In experiment [3] the target is T3, Kinesin-1 heavy chain (KIF5B) (Homo sapiens, UniProt P33176).
T3 construct: Protein extracts from human fibroblasts were incubated with magnetic beads; endogenous in cells; host or cells: human fibroblast lysate
T3 sequence (P33176 1-963): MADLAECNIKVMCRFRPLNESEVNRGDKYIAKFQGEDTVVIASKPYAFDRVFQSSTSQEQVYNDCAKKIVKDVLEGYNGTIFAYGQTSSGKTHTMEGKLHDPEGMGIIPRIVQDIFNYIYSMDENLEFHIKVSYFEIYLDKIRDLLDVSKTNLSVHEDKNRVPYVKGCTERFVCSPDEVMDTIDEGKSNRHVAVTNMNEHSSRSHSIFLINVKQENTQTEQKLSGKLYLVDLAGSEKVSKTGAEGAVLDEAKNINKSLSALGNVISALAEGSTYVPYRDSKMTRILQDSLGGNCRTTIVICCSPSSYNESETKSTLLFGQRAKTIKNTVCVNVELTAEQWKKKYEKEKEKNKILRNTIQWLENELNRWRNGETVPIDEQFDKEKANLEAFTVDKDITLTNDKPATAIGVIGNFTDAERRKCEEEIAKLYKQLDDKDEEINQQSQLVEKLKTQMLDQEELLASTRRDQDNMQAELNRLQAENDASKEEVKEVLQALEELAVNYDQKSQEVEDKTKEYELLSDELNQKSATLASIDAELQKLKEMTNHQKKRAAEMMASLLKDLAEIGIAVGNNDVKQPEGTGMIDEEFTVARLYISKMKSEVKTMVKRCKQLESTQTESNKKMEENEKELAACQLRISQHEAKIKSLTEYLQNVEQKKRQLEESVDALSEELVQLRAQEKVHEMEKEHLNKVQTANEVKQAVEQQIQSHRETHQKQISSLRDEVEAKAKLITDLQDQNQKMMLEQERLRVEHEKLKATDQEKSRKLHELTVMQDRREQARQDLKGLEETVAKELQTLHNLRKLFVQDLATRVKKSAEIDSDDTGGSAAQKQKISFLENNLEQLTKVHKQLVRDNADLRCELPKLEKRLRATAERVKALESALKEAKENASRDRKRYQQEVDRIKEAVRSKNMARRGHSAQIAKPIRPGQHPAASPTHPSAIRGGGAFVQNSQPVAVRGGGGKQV
How it is done:
as §1, §2, §3, §4

Experiment [4] has as its target T4, Mitogen-activated protein kinase (MAP4K4) (Homo sapiens, UniProt O95819).
T4 construct: Protein extracts from human fibroblasts were incubated with magnetic beads; endogenous in cells; host or cells: human fibroblast lysate
Here is the method:
as §1, §2, §3, §4

Experiment [5] addresses T5, Myotubularin-related protein 5 (SBF1) (Homo sapiens, UniProt O95248).
T5 construct: Protein extracts from human fibroblasts were incubated with magnetic beads; endogenous in cells; host or cells: human fibroblast lysate
How it is done: as §1, §2, §3, §4

The target of experiment [6] is T6, RNA-splicing ligase RtcB homolog (RTCB) (Homo sapiens, UniProt Q9Y3I0).
T6 construct: Protein extracts from human fibroblasts were incubated with magnetic beads; endogenous in cells; host or cells: human fibroblast lysate
T6 sequence (Q9Y3I0 1-505): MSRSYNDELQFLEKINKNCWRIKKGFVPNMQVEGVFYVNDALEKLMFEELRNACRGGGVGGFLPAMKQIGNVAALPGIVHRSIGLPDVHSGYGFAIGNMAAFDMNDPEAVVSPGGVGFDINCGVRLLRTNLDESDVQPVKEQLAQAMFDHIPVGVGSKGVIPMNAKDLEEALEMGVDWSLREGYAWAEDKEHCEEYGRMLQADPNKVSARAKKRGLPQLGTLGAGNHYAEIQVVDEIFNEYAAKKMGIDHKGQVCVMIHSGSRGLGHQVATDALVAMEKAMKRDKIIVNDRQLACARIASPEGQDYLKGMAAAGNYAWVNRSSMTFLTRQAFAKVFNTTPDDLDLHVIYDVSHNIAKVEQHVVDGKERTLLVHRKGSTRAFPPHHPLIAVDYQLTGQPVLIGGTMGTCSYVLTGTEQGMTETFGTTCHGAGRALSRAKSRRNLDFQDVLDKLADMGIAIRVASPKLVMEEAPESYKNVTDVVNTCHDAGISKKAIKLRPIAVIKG
How it is done:
as §1, §2, §3, §4

Experiment [7] addresses T7, Unconventional myosin-IXb (MYO9B) (Homo sapiens, UniProt Q13459).
T7 construct: Protein extracts from human fibroblasts were incubated with magnetic beads; endogenous in cells; host or cells: human fibroblast lysate
Here is the method:
as §1, §2, §3, §4

T1 sequence (Q13557 whole entry): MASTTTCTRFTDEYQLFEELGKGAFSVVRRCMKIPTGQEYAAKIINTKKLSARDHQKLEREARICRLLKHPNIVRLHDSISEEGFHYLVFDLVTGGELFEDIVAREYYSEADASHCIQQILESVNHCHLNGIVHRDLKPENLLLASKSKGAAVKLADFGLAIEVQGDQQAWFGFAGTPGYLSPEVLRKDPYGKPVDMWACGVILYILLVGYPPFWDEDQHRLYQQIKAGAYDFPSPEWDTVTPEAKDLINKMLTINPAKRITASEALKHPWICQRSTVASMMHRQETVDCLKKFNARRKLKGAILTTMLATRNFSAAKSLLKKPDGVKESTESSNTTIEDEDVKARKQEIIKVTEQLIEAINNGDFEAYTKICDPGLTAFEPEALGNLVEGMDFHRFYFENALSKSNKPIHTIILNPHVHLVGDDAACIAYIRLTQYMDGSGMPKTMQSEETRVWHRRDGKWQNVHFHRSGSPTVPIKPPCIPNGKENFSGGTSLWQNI
T5 sequence (O95248 whole entry): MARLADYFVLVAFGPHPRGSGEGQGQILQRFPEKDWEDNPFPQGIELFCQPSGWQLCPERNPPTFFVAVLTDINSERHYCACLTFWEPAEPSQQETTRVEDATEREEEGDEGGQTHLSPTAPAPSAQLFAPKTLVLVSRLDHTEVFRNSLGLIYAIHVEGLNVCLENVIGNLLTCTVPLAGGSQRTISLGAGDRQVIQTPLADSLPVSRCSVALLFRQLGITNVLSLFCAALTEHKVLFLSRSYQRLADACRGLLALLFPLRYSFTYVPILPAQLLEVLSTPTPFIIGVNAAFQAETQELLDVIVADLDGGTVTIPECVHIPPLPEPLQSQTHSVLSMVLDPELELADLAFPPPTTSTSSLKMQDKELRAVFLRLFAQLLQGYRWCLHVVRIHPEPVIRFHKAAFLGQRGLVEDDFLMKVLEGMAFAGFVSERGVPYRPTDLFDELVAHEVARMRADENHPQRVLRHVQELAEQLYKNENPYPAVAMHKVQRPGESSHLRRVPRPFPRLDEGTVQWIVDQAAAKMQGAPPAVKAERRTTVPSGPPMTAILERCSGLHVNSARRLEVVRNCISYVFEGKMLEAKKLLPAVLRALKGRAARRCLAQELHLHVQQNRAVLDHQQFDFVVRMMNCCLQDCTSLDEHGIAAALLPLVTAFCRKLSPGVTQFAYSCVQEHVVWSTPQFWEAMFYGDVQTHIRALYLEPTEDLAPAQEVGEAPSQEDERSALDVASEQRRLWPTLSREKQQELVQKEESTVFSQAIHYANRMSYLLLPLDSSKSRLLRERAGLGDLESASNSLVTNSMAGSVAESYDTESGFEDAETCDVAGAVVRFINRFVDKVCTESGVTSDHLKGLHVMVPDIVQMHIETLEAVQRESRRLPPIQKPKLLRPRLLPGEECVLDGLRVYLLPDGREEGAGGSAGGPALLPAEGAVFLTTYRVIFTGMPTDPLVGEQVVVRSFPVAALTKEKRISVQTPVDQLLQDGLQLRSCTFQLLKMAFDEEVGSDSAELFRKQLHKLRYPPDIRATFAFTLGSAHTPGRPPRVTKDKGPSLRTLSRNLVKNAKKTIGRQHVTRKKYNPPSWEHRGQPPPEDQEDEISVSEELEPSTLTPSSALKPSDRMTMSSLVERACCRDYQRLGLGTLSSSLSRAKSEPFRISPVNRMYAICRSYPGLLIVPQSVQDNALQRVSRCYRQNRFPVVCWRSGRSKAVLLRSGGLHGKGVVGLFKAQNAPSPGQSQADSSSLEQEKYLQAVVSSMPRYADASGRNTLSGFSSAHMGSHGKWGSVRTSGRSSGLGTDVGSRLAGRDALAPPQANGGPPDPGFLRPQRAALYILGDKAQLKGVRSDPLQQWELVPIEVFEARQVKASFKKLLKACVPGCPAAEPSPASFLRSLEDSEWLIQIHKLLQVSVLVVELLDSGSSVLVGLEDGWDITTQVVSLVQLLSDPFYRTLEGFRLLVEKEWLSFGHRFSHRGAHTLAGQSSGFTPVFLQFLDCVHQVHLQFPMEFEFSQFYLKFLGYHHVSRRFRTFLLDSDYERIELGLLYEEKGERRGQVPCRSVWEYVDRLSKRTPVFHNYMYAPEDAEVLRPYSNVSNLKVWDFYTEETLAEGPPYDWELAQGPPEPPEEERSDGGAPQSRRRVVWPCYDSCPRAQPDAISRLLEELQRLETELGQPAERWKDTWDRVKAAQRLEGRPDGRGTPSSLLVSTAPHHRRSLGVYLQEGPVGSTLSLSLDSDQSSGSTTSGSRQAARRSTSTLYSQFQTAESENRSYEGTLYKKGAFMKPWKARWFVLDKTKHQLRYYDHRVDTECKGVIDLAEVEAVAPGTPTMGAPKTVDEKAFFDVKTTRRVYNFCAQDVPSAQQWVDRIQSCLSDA
T4 sequence (O95819 whole entry): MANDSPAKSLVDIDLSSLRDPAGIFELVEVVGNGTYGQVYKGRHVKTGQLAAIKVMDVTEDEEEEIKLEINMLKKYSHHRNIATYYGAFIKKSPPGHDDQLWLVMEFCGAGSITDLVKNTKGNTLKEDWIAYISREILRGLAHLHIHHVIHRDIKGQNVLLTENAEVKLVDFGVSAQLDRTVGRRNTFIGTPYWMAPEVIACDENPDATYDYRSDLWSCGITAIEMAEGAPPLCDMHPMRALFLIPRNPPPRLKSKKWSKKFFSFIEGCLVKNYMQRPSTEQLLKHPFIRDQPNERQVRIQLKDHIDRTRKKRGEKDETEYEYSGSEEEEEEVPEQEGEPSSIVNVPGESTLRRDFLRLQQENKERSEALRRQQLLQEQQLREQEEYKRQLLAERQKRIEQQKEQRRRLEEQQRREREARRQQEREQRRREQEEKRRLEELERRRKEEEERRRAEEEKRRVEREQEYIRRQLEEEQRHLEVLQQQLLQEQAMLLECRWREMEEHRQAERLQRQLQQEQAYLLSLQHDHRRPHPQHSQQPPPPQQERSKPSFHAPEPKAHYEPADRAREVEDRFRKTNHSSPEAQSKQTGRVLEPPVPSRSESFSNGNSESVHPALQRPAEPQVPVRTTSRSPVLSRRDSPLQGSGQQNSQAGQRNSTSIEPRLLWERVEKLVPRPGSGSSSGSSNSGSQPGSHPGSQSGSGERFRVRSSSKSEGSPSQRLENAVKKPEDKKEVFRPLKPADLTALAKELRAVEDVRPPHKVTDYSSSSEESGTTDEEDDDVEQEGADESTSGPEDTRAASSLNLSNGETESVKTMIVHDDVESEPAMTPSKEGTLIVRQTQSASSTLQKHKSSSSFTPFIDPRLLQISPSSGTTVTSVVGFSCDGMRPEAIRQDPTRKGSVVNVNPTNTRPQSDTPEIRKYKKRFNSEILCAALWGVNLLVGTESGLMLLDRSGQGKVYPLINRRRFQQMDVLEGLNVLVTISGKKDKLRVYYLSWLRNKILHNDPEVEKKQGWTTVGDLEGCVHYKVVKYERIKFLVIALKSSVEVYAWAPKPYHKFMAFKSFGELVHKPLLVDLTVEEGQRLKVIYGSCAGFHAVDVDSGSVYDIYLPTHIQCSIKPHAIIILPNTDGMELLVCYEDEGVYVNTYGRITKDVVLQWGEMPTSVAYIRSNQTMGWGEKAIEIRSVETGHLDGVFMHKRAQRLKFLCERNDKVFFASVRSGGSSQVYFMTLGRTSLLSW

Regarding `O=C(N/N=C/c1ccc([N+](=O)[O-])o1)c1ccc(O)cc1` [NFX, (E)-4-hydroxy-N′-((5-nitrofuran-2-yl)methylene)benzohydrazide], the Fold change in experiment [1] turned out to be 803.33; in experiment [2], 386.67; in experiment [3], 121.67; in experiment [4], 29.76; in experiment [5] it was 41.35; in experiment [6], 40.98. In experiment [7], this compound gave a Fold change of 34.52.
